Source: PubChem BioAssay AID330 (DTP/NCI, 2004)
Where “and” joins values, the source holds several entries; their conditions need not be identical. Equal entries are not always repeated. Inconclusive results and toxic doses are left out.

System: P388 leukemia ip, CD2F1 mice, survival T/C
Test: NCI In Vivo Anticancer Drug Screen. Data for tumor model P388 Leukemia (intraperitoneal) in CD2F1 (CDF1) mice
Settings: endpoint: median survival time, higher = longer survival
Method in brief: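 Mice carrying the transplanted tumor received test compound or vehicle. Survival was recorded in each group, and the value is the treated-group measurement divided by that of the vehicle-treated control group.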

[1] = dose: 60.0 mg/kg/injection, schedule: Q01DX005 (ip), vehicle: saline with Tween-80
[2] = dose: 120.0 mg/kg/injection, schedule: Q01DX005 (ip), vehicle: saline with Tween-80
[3] = dose: 240.0 mg/kg/injection, schedule: Q01DX005 (ip), vehicle: saline with Tween-80

For `CC[C@]1(O)C[C@H]2CN(CCc3c([nH]c4ccccc34)[C@@](C(=O)OC)(c3cc4c(cc3OC)N(C)[C@H]3[C@@](O)(C(=O)OC)[C@H](OC(C)=O)[C@]5(CC)C=CCN6CC[C@]43[C@@H]65)C2)C1`, the T/C (dose: 0.03 mg/kg/injection, schedule: Q04DX003 (ip), vehicle: water) was 100 % of control, the T/C (dose: 0.13 mg/kg/injection, schedule: Q01DX005 (ip), vehicle: saline) was 172 % of control and the T/C (dose: 0.13 mg/kg/injection, schedule: Q01DX009 (ip), vehicle: saline) was 162 % of control. The T/C (dose: 0.16 mg/kg/injection, schedule: Q01DX009 (ip), vehicle: saline) was 160 % of control, the T/C (dose: 0.25 mg/kg/injection, schedule: Q01DX005 (ip), vehicle: saline) was 202 % of control and the T/C (dose: 0.38 mg/kg/injection, schedule: Q04DX003 (ip), vehicle: saline) was 162 % of control. For the same compound, the T/C (dose: 0.4 mg/kg/injection, schedule: Q04DX003 (ip), vehicle: water) was 160 % of control, the T/C (dose: 0.45 mg/kg/injection, schedule: Q01DX009 (ip), vehicle: saline) was 168 % of control and the T/C (dose: 0.5 mg/kg/injection, schedule: Q01DX001 (ip), vehicle: saline) was 150 % of control. The T/C (dose: 0.5 mg/kg/injection, schedule: Q01DX005 (ip), vehicle: saline) was 163 % of control and 177 % of control, the T/C (dose: 0.5 mg/kg/injection, schedule: Q04DX003 (ip), vehicle: saline) was 169 % of control and the T/C (dose: 0.52 mg/kg/injection, schedule: Q04DX002 (ip), vehicle: saline) was 157 % of control. For the same compound, the T/C (dose: 0.63 mg/kg/injection, schedule: Q04DX003 (ip), vehicle: saline) was 157 % of control and 248 % of control, the T/C (dose: 0.64 mg/kg/injection, schedule: Q04DX002 (ip), vehicle: saline) was 179 % of control and the T/C (dose: 0.65 mg/kg/injection, schedule: Q04DX003 (ip), vehicle: saline) was 173 % of control. For the same compound, the T/C (dose: 0.67 mg/kg/injection, schedule: Q04DX003 (ip), vehicle: saline) was 185 % of control, the T/C (dose: 0.75 mg/kg/injection, schedule: Q01DX009 (ip), vehicle: saline) was 91 % of control and the T/C (dose: 0.75 mg/kg/injection, schedule: Q04DX003 (ip), vehicle: saline) was 198 % of control. For the same compound, the T/C (dose: 0.8 mg/kg/injection, schedule: Q01DX009 (ip), vehicle: saline) was 90 % of control, the T/C (dose: 0.8 mg/kg/injection, schedule: Q04DX003 (ip), vehicle: water) was 173 % of control and 185 % of control and the T/C (dose: 0.86 mg/kg/injection, schedule: Q04DX002 (ip), vehicle: saline) was 196 % of control. The T/C (dose: 1.0 mg/kg/injection, schedule: Q01DX001 (ip), vehicle: Klucel (hydroxypropylcellulose) (HPC)) was 163 % of control, the T/C (dose: 1.0 mg/kg/injection, schedule: Q01DX001 (ip), vehicle: saline) was 162 % of control and the T/C (dose: 1.0 mg/kg/injection, schedule: Q04DX003 (ip), vehicle: water) was 150 % of control. For the same compound, the T/C (dose: 1.08 mg/kg/injection, schedule: Q04DX002 (ip), vehicle: saline) was 199 % of control, the T/C (dose: 1.08 mg/kg/injection, schedule: Q04DX003 (ip), vehicle: saline) was 186 % of control and 201 % of control and the T/C (dose: 1.2 mg/kg/injection, schedule: Q04DX003 (ip), vehicle: saline) was 189 % of control. The T/C (dose: 1.44 mg/kg/injection, schedule: Q04DX002 (ip), vehicle: saline) was 197 % of control and 198 % of control, the T/C (dose: 1.44 mg/kg/injection, schedule: Q04DX003 (ip), vehicle: saline) was 97 % of control and the T/C (dose: 1.6 mg/kg/injection, schedule: Q04DX003 (ip), vehicle: water) was 228 % of control and 229 % of control and 234 % of control. The T/C (dose: 1.8 mg/kg/injection, schedule: Q04DX002 (ip), vehicle: saline) was 218 % of control, the T/C (dose: 1.8 mg/kg/injection, schedule: Q04DX003 (ip), vehicle: saline) was 213 % of control and 220 % of control and the T/C (dose: 2.0 mg/kg/injection, schedule: Q01DX001 (ip), vehicle: clinical formulation) was 150 % of control. For the same compound, the T/C (dose: 2.0 mg/kg/injection, schedule: Q04DX003 (oral), vehicle: water) was 110 % of control, the T/C (dose: 2.4 mg/kg/injection, schedule: Q04DX002 (ip), vehicle: saline) was 376 % of control and the T/C (dose: 3.2 mg/kg/injection, schedule: Q04DX003 (ip), vehicle: water) was 100 % of control. For the same compound, the T/C (dose: 3.33 mg/kg/injection, schedule: Q04DX003 (ip), vehicle: saline) was 240 % of control, the T/C (dose: 4.0 mg/kg/injection, schedule: Q01DX001 (ip), vehicle: Klucel (hydroxypropylcellulose) (HPC)) was 216 % of control and the T/C (dose: 4.0 mg/kg/injection, schedule: Q01DX001 (ip), vehicle: clinical formulation) was 171 % of control and 177 % of control. The T/C (dose: 4.0 mg/kg/injection, schedule: Q01DX001 (ip), vehicle: saline) was 162 % of control and 200 % of control, the T/C (dose: 8.0 mg/kg/injection, schedule: Q01DX001 (ip), vehicle: Klucel (hydroxypropylcellulose) (HPC)) was 177 % of control and the T/C (dose: 8.0 mg/kg/injection, schedule: Q01DX001 (ip), vehicle: clinical formulation) was 190 % of control. The T/C (dose: 125.0 micrograms/kg/injection, schedule: Q01DX009 (ip), vehicle: water) was 172 % of control, the T/C (dose: 250.0 micrograms/kg/injection, schedule: Q01DX009 (ip), vehicle: water) was 164 % of control and the T/C (dose: 500.0 micrograms/kg/injection, schedule: Q01DX009 (ip), vehicle: water) was 92 % of control.

In the case of `COc1cc2c(cc1OC)C1CCN3C(=O)CCC3[N+]1(C)CC2` (stereo unspecified), the T/C (dose: 25.0 mg/kg/injection, schedule: Q01DX009 (ip), vehicle: saline sonified) was 90 % of control, the T/C (dose: 50.0 mg/kg/injection, schedule: Q01DX009 (ip), vehicle: saline sonified) was 90 % of control and the T/C (dose: 100.0 mg/kg/injection, schedule: Q01DX009 (ip), vehicle: saline sonified) was 90 % of control.

In the case of `CCOC(=O)CCCCCCCNC(=O)N1c2c(nc(N)[nH]c2=O)NCC1CNc1ccc(C(=O)NC(CCC(=O)O)C(=O)O)cc1` (stereo unspecified), the T/C (dose: 50.0 mg/kg/injection, schedule: Q01DX001 (ip), vehicle: sodium bicarbonate) was 100 % of control, the T/C (dose: 100.0 mg/kg/injection, schedule: Q01DX001 (ip), vehicle: sodium bicarbonate) was 101 % of control and the T/C (dose: 200.0 mg/kg/injection, schedule: Q01DX001 (ip), vehicle: sodium bicarbonate) was 100 % of control.

`O=C(NC(Cc1ccc(O)cc1)C(=O)O)C(=O)c1c[nH]c2ccccc12` (stereo unspecified) was tested, and the T/C [1] was 96 % of control, the T/C [2] was 97 % of control and the T/C [3] was 100 % of control.

With `C/C(=N\NC(=O)c1ccccc1)C(=O)O` the T/C (dose: 100.0 mg/kg/injection, schedule: Q04DX002 (ip), vehicle: Klucel (hydroxypropylcellulose) (HPC)) was 106 % of control, the T/C (dose: 200.0 mg/kg/injection, schedule: Q04DX002 (ip), vehicle: Klucel (hydroxypropylcellulose) (HPC)) was 100 % of control and the T/C (dose: 400.0 mg/kg/injection, schedule: Q04DX002 (ip), vehicle: Klucel (hydroxypropylcellulose) (HPC)) was 99 % of control.

For `O=Cc1c[nH]c2ccc(Br)cc12`, the T/C (dose: 100.0 mg/kg/injection, schedule: Q01DX001 (ip), vehicle: other) was 100 % of control, the T/C (dose: 200.0 mg/kg/injection, schedule: Q01DX001 (ip), vehicle: other) was 90 % of control and the T/C (dose: 400.0 mg/kg/injection, schedule: Q01DX001 (ip), vehicle: other) was 100 % of control.

`O=C1c2cccc([N+](=O)[O-])c2C(=O)c2nccnc21` was tested, and the T/C (dose: 6.0 mg/kg/injection, schedule: Q01DX005 (ip), vehicle: Klucel (hydroxypropylcellulose) (HPC)) was 100 % of control and the T/C (dose: 12.0 mg/kg/injection, schedule: Q01DX005 (ip), vehicle: Klucel (hydroxypropylcellulose) (HPC)) was 107 % of control.

`CCOC(=O)c1ccc(NC(=O)N2CC(C)OC(C)C2)cc1` (stereo unspecified) was tested, and the T/C (dose: 50.0 mg/kg/injection, schedule: Q01DX009 (ip), vehicle: saline with Tween-80) was 87 % of control, the T/C (dose: 100.0 mg/kg/injection, schedule: Q01DX009 (ip), vehicle: saline with Tween-80) was 97 % of control and the T/C (dose: 200.0 mg/kg/injection, schedule: Q01DX009 (ip), vehicle: saline with Tween-80) was 97 % of control.

For `Cc1cc(Cl)ccc1NC(=O)C1C(=O)N(c2ccc(Cl)cc2C)C(=O)/C1=N\NC(N)=O` (stereo unspecified), the T/C [1] was 101 % of control, the T/C [2] was 93 % of control and the T/C [3] was 98 % of control.

`CC(=O)[O][Sn]([c]1ccccc1)([c]1ccccc1)[c]1ccccc1` was tested, and the T/C (dose: 0.25 mg/kg/injection, schedule: Q04DX003 (ip), vehicle: saline with Tween-80) was 104 % of control, the T/C (dose: 0.5 mg/kg/injection, schedule: Q04DX003 (ip), vehicle: saline with Tween-80) was 109 % of control and the T/C (dose: 125.0 micrograms/kg/injection, schedule: Q01DX009 (ip), vehicle: saline with Tween-80) was 100 % of control. For the same compound, the T/C (dose: 250.0 micrograms/kg/injection, schedule: Q01DX009 (ip), vehicle: saline with Tween-80) was 109 % of control and the T/C (dose: 500.0 micrograms/kg/injection, schedule: Q01DX009 (ip), vehicle: saline with Tween-80) was 109 % of control.

In the case of `C=CCOc1cc2c(cc1C(CC)c1ccc(OCc3ccccc3)cc1)OCO2` (stereo unspecified), the T/C (dose: 50.0 mg/kg/injection, schedule: Q01DX005 (ip), vehicle: saline with Tween-80) was 102 % of control, the T/C (dose: 100.0 mg/kg/injection, schedule: Q01DX005 (ip), vehicle: saline with Tween-80) was 100 % of control and the T/C (dose: 200.0 mg/kg/injection, schedule: Q01DX005 (ip), vehicle: saline with Tween-80) was 95 % of control.
